From ChEMBL document CHEMBL1201862, “PubChem BioAssay data set” (2004) come the findings set out here.

Common to all, as to experiment: DTP human tumour cell line panel, 48 h
Assay [1] concerns NCI-H460.
Assay [2] deals with SR.
The subject of assay [3] is LOX IMVI.
Assay [4] relates to MDA-MB-231.
Assay [5] concerns UACC-257.
Assay [6] deals with SF-268.
The test system of assay [7] is OVCAR-3.
Assay [8] has as its system NCI-H226.
Assay [9] relates to T47D.
Assay [10] relates to OVCAR-4.
For assay [11], the system named is COLO 205.
Assay [12] deals with DU-145.
For assay [13], the system named is HOP-92.
Assay [14] relates to A498.
Assay [15] relates to SK-MEL-28.
Assay [16] deals with OVCAR-5.
The test system of assay [17] is PC-3.
The test system of assay [18] is Malme-3M.
In assay [19] the test system is HCT-15.
For assay [20], the system named is CCRF-CEM.

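In this assay, cells in 96-well plates receive the compound at five concentrations for 48 hours. Endpoints are linearly interpolated between the surrounding concentrations. At the GI50, growth is halved.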 Calls of active or inactive are those of the source. Cut-off read from the data, not from the text of the source: active = GI50 up to about 1.1 µM and inactive = higher.

The term GI50 denotes the concentration giving 50% growth inhibition. Take `O=C1Nc2ccc(S(=O)(=O)O)cc2/C1=C1/Nc2ccc(Br)cc2C1=O`: the GI50 in assay [1], in assay [2], in assay [3], in assay [4], in assay [5] and in assay [6] was > 100 µM (inactive) in each case. Further, the GI50 in [7], in assay [8], in assay [9], in [10], in assay [11] and in assay [12] was > 100 µM (inactive) in each case. The GI50 in assay [13], in assay [14], in assay [15], in [16], in assay [17] and in assay [18] was > 100 µM (inactive) in each case. For the same molecule, the GI50 is greater than 100 µM in assay [19] and > 100 µM (inactive) in [20].

`COc1cc([C@@H]2c3cc(O)c(OC)cc3C=C(C(N)=O)[C@H]2C(N)=O)ccc1O`: the GI50 in [1], in assay [2], in assay [3], in assay [4], in [5] and in [6] was > 100 µM (inactive) throughout. The GI50 in [7], in assay [8], in [9], in assay [11], in assay [12] and in assay [13] was > 100 µM (inactive) throughout. The GI50 was > 100 µM (inactive) in [14]; > 100 µM (inactive) in assay [15]; > 100 µM (inactive) in assay [16]; > 100 µM (inactive) in [17]; > 100 µM (inactive) in [18]; greater than 100 µM in assay [19]. Moreover, in [20], the GI50 is > 100 µM (inactive).

As for `COc1cccc(/C=C2\SC(=S)N(/C=C3\C(=O)Oc4ccccc4C3=O)C2=O)c1O`, the GI50 is 48.1 µM (inactive) in assay [1]; 30.6 µM (inactive) in assay [2]; 63.2 µM (inactive) in assay [3]; 33.2 µM (inactive) in assay [4]; 68.2 µM (inactive) in assay [5]; 46.7 µM (inactive) in assay [6]. Also, the GI50 in assay [7] was 34.4 µM (inactive); in assay [8], > 100 µM (inactive); in assay [9], 48.6 µM (inactive); in [10], 82.4 µM (inactive); in [11] it was 85.7 µM (inactive); in [12] it was 74.5 µM (inactive). For the same molecule, the GI50 is 11.9 µM (inactive) in [14]; 40.4 µM (inactive) in assay [15]; > 100 µM (inactive) in [16]; 51.8 µM (inactive) in assay [17]; > 100 µM (inactive) in assay [18]; 43.2 µM in assay [19]. For the same molecule, in assay [20], the GI50 was 38.7 µM (inactive).

For the molecule `O=C(/C=C/c1cccs1)c1ccc(Cl)cc1`, the GI50 in assay [1] is > 100 µM (inactive); in [2], 28.1 µM (inactive); in assay [4], > 100 µM (inactive); in assay [5] it was > 100 µM (inactive); in [6], 50.8 µM (inactive); in [8], 67.8 µM (inactive). For the same molecule, the GI50 in assay [9] was 56.1 µM (inactive); in assay [11], > 100 µM (inactive); in assay [12], > 100 µM (inactive); in assay [14], 99.3 µM (inactive); in assay [15], > 100 µM (inactive); in assay [16], > 100 µM (inactive). The GI50 in [17] is > 100 µM (inactive); in assay [18], > 100 µM (inactive); in assay [19], 41 µM; in assay [20], 29.9 µM (inactive).

As for `COC(=O)[C@H](Cc1ccccc1)NC(=O)c1ccc(CNC(=O)/C=C/c2cccc(Oc3ccccc3)c2)cc1`, the GI50 in assay [1] was 24.9 µM (inactive); in assay [2] it was 6.79 µM (inactive); in [4], 18.7 µM (inactive); in [5], 6.27 µM (inactive); in assay [6] it was 14.6 µM (inactive); in [7], 11.8 µM (inactive). The GI50 in [8] is 52.7 µM (inactive); in assay [9], 56 µM (inactive); in assay [10], 34.4 µM (inactive); in assay [11], 21.3 µM (inactive); in assay [12] it was 40.6 µM (inactive); in [13], 5.31 µM (inactive). In addition, the GI50 was 23.1 µM (inactive) in assay [14]; 9.33 µM (inactive) in assay [15]; > 100 µM (inactive) in assay [16]; 29.4 µM (inactive) in assay [17]; 15.1 µM (inactive) in assay [18]; 6.24 µM in [19]. In addition, the GI50 in assay [20] was 11 µM (inactive).

Take `Cc1ccc(O)c(-c2cc(-c3cccc(Br)c3)c(C#N)c(N)n2)c1`: the GI50 in [1] is 19.6 µM (inactive); in assay [2], 19.3 µM (inactive); in [3], 16.3 µM (inactive); in assay [4], 20.4 µM (inactive); in assay [5] it was 20.8 µM (inactive); in assay [6], 26.4 µM (inactive). Moreover, the GI50 in assay [7] is 27.6 µM (inactive); in assay [8] it was 17.5 µM (inactive); in assay [9], 17.7 µM (inactive); in [10] it was < 0.01 µM (active); in [11], 18.5 µM (inactive); in assay [12], 29.6 µM (inactive). Further, the GI50 in [16] was 41.5 µM (inactive); in assay [17] it was 17.7 µM (inactive); in assay [18], 23.5 µM (inactive); in [19], 12.9 µM.

Regarding `C/C(=C\CNc1ncnc2c1ncn2CCC(=O)OC(C)(C)C)CO`, the GI50 in assay [1], in assay [2], in assay [3], in [4], in assay [5] and in assay [6] was > 100 µM (inactive) in each case. Besides, the GI50 in assay [7], in [8], in [9], in assay [10], in [11] and in [12] was > 100 µM (inactive) in each case. Besides, the GI50 in [13], in assay [14], in assay [15], in assay [16], in assay [17] and in assay [18] was > 100 µM (inactive) in each case. Also, the GI50 in assay [20] is > 100 µM (inactive).

Regarding `CC(=O)O/C=C\OC1CCCC1`, the GI50 in assay [1], in assay [2], in [3], in assay [4], in assay [5] and in [6] was > 100 µM (inactive) throughout. In addition, the GI50 in assay [7], in assay [8], in [9], in assay [10], in assay [11] and in assay [12] was > 100 µM (inactive) in each case. Further, the GI50 is > 100 µM (inactive) in assay [13]; > 100 µM (inactive) in assay [14]; > 100 µM (inactive) in [15]; > 100 µM (inactive) in [17]; > 100 µM (inactive) in assay [18]; greater than 100 µM in [19]. Also, the GI50 in assay [20] was 21.9 µM (inactive).

Consider `COCn1c(C)c(C)c2c(=O)oc(N(C)C)nc21`, for which the GI50 in [1], in assay [2], in [3], in assay [4], in assay [5] and in assay [8] was > 100 µM (inactive) throughout. For the same molecule, the GI50 in assay [9] is > 100 µM (inactive); in assay [10] it was > 100 µM (inactive); in assay [11] it was > 100 µM (inactive); in assay [12] it was > 100 µM (inactive); in assay [13], > 100 µM (inactive); in assay [14], 39 µM (inactive). Moreover, the GI50 in assay [15] is > 100 µM (inactive); in assay [16], > 100 µM (inactive); in [17], > 100 µM (inactive); in assay [18], > 100 µM (inactive); in assay [19], greater than 100 µM; in assay [20] it was > 100 µM (inactive).

Turning to `O=C(O)C1CC=CCC1C(=O)Nc1cccc(O)c1` (stereo not drawn), the GI50 in [1], in [2], in [3], in [4], in assay [5] and in assay [6] was > 100 µM (inactive) each time. Also, the GI50 in [7], in assay [8], in [9], in assay [10], in assay [11] and in assay [12] was > 100 µM (inactive) in each case. Moreover, the GI50 in [13], in [14], in [15], in assay [16], in [17] and in assay [18] was > 100 µM (inactive) throughout. For the same molecule, the GI50 in assay [19] was greater than 100 µM.

Take `Cc1nc(N)c(N2CCN(CN)CC2)c(O)n1`: the GI50 in assay [1], in assay [2], in [3], in assay [4], in assay [5] and in assay [6] was > 100 µM (inactive) each time. Also, the GI50 in assay [7], in assay [8], in assay [9], in [10], in assay [11] and in assay [12] was > 100 µM (inactive) in each case. For the same molecule, the GI50 in [14] was > 100 µM (inactive); in [15], > 100 µM (inactive); in assay [16] it was > 100 µM (inactive); in [17], > 100 µM (inactive); in [18] it was > 100 µM (inactive); in [19], greater than 100 µM. Moreover, the GI50 in assay [20] is > 100 µM (inactive).
